These results are taken from US7468439B2, “Alkylene bridged sultam compounds useful as modulators of nuclear hormone receptor function” (Bristol-Myers Squibb Company, priority 2006, dated 2008).

A short description of data set [1]: stability of the isolated material on storage. The format is physicochemical.
A short description of data set [2]: serum T and DHT concentrations after subcutaneous injection. The conditions noted are these: over 24 hours.
The next data set concerns the target T1, AR (Rattus norvegicus, UniProt P15207).
T1 sequence (P15207 1-902): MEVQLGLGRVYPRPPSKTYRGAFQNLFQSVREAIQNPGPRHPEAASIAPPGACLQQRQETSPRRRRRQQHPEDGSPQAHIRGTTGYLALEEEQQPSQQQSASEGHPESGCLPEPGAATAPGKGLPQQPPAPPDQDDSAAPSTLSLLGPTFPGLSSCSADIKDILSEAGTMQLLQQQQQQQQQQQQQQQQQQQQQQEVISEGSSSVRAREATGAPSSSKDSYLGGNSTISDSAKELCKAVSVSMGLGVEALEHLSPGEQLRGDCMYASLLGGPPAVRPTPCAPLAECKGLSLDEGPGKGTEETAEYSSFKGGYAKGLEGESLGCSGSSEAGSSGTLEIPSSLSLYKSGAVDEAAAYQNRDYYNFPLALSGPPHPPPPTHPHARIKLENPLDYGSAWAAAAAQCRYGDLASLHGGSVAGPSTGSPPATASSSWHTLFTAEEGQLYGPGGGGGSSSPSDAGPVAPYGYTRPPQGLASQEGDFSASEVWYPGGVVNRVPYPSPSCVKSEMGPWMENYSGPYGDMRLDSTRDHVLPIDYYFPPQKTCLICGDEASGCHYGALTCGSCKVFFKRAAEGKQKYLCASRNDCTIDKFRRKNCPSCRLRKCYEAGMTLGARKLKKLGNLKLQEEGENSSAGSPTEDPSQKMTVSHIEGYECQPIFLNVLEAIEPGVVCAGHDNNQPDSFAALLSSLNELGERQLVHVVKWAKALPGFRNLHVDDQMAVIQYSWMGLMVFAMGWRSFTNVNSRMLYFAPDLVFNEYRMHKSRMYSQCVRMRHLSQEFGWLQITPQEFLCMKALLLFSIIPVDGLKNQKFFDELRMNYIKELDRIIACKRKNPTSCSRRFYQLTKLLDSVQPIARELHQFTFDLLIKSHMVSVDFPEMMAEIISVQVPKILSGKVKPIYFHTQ

Another data set has as its target wild type AR. The conditions noted are these: read-out: Kd for [^3H]-DHT; MDA 453 cells (wild type AR), saturation analysis, Scatchard. On the procedure: For the saturation analysis, the difference between the total binding and the non-specific binding, is defined as specific binding.
Two replicates are used for each sample. After 4 hours at 37° C., cells are washed, harvested, and counted as described above. […] The K1 values are determined by application of the Cheng-Prusoff equation to the IC50 values, where:
[formula] After correcting for non-specific binding, IC50 values are determined. […] Murine Breast Cell Proliferation Assay

As for `N#Cc1ccc(N2C[C@H]3[C@H]4CC[C@H](C4)[C@@]3(COS(=O)(=O)C(F)(F)F)S2(=O)=O)cc1C(F)(F)F` [Example 61, ((1R,2R,6R,7S)-4-(4-cyano-3-(trifluoromethyl)phenyl)-3,3-dioxido-3-thia-4-azatricyclo[5.2.1.0^2,6]dec-2-yl)methyl trifluoromethanesulfonate], in data set [1] (under an inert atmosphere, unpurified material), the stability result is reported as “stable for several weeks under an inert atmosphere”.

Regarding `N#Cc1ccc(N2C[C@H]3[C@H]4CC[C@H](C4)[C@@]3(CN=[N+]=[N-])S2(=O)=O)cc1C(F)(F)F` [Example 65, 4-((1R,2R,6R,7S)-2-(azidomethyl)-3,3-dioxido-3-thia-4-azatricyclo[5.2.1.0^2,6]dec-4-yl)-2-(trifluoromethyl)benzonitrile], in data set [1] (ambient conditions), the stability result is reported as “prone to decomposition under ambient conditions”.

Consider `C[C@]12CC[C@H]3[C@@H](CCC4=CC(=O)CC[C@@]43C)[C@@H]1CC[C@@H]2O` [T, testosterone], for which the “course of serum concentrations of T and DHT” value in data set [2] is “decline very rapidly”.

For the compound `CCC(=O)O[C@H]1CC[C@H]2[C@@H]3CCC4=CC(=O)CC[C@]4(C)[C@H]3CC[C@]12C` [TP, testosterone propionate], the “potency relative to free T” value on AR (higher potency than free T) is given as 10-30 fold. For the same compound, the ED80 at AR (immature castrated rat model, weights of VP and SV) was determined as 0.1 mg. For the same compound, the “EC50 (increase in organ weight, VP and SV)” value on AR (immature castrated rats, dosing for 3 days) is listed as roughly 0.03 mg.

The Kd is the equilibrium constant for the complex coming apart. “tritiated dihydrotestosterone [[^3H]-DHT]”: the dissociation constant (Kd) on wild type AR worked out at 0.7 nM.
